{"source": "PubChem BioAssay AID270", "about": "(DTP/NCI, 2004)", "system": "BDF1 mice, s.c. Lewis lung carcinoma, T/C %", "test": "NCI In Vivo Anticancer Drug Screen. Data for tumor model Lewis Lung Carcinoma (subcutaneous) in B6D2F1 (BDF1) mice", "description": "The antitumor activity of compounds was measured in mice bearing transplantable tumors. Survival or tumor size were measured and the results are expressed as the measurement made in the treated group (T) divided by the measurement made in the vehicle treated control group (C). The tumor model used in this assay is Lewis Lung Carcinoma (subcutaneous) in B6D2F1 (BDF1) mice", "note": "Several values for one entry are separate records, joined by “and”; a condition that tells them apart may be missing. Equal entries are not always repeated. Results filed as inconclusive are left out.", "data": [{"smiles": "CC(CN1CC(=O)NC(=O)C1)N1CC(=O)NC(=O)C1", "note": "(centres undefined)", "values": [{"measurement": "T/C", "setting": "endpoint: median survival time, dose: 0.5 mg/kg/injection, schedule: Q01DX009 (ip), vehicle: saline, higher = longer survival", "result": "91 % of control"}, {"measurement": "T/C", "setting": "endpoint: median survival time, dose: 1.0 mg/kg/injection, schedule: Q01DX009 (ip), vehicle: saline, higher = longer survival", "result": "109 % of control"}, {"measurement": "T/C", "setting": "endpoint: median survival time, dose: 1.9 mg/kg/injection, schedule: Q01DX009 (ip), vehicle: saline, higher = longer survival", "result": "112 % of control"}, {"measurement": "T/C", "setting": "endpoint: median survival time, dose: 3.75 mg/kg/injection, schedule: Q01DX009 (ip), vehicle: saline, higher = longer survival", "result": "106 % of control"}, {"measurement": "T/C", "setting": "endpoint: median survival time, dose: 7.5 mg/kg/injection, schedule: Q01DX009 (ip), vehicle: saline, higher = longer survival", "result": "108 % of control"}, {"measurement": "T/C", "setting": "endpoint: median survival time, dose: 15.0 mg/kg/injection, schedule: Q01DX009 (ip), vehicle: Klucel (hydroxypropylcellulose) (HPC), higher = longer survival", "result": "112 % of control"}, {"measurement": "T/C", "setting": "endpoint: median survival time, dose: 30.0 mg/kg/injection, schedule: Q01DX009 (ip), vehicle: Klucel (hydroxypropylcellulose) (HPC), higher = longer survival", "result": "86 % of control"}, {"measurement": "T/C", "setting": "endpoint: median survival time, dose: 60.0 mg/kg/injection, schedule: Q01DX009 (ip), vehicle: Klucel (hydroxypropylcellulose) (HPC), higher = longer survival", "result": "116 % of control"}, {"measurement": "T/C", "setting": "endpoint: median tumor weight (est.), dose: 13.0 mg/kg/injection, schedule: Q01DX011 (ip), vehicle: saline, higher = larger tumour", "result": "57 % of control and 74 % of control"}, {"measurement": "T/C", "setting": "endpoint: median tumor weight (est.), dose: 20.0 mg/kg/injection, schedule: Q01DX011 (ip), vehicle: saline, higher = larger tumour", "result": "58 % of control and 79 % of control"}, {"measurement": "T/C", "setting": "endpoint: median tumor weight (est.), dose: 30.0 mg/kg/injection, schedule: Q01DX011 (ip), vehicle: saline, higher = larger tumour", "result": "68 % of control"}]}, {"smiles": "CCCCCCCC(=O)O[C@H]1[C@H]2[C@@H](CC1(C)C)C(=O)[C@]13O[C@H]1C(=O)[C@]1(CO1)[C@]23C", "values": [{"measurement": "T/C", "setting": "endpoint: median survival time, dose: 0.31 mg/kg/injection, schedule: Q01DX009 (ip), vehicle: Klucel (hydroxypropylcellulose) (HPC), higher = longer survival", "result": "89 % of control"}, {"measurement": "T/C", "setting": "endpoint: median survival time, dose: 0.63 mg/kg/injection, schedule: Q01DX009 (ip), vehicle: Klucel (hydroxypropylcellulose) (HPC), higher = longer survival", "result": "90 % of control"}, {"measurement": "T/C", "setting": "endpoint: median survival time, dose: 1.25 mg/kg/injection, schedule: Q01DX009 (ip), vehicle: Klucel (hydroxypropylcellulose) (HPC), higher = longer survival", "result": "89 % of control"}, {"measurement": "T/C", "setting": "endpoint: median survival time, dose: 2.5 mg/kg/injection, schedule: Q01DX009 (ip), vehicle: Klucel (hydroxypropylcellulose) (HPC), higher = longer survival", "result": "89 % of control"}]}, {"smiles": "C=C(C)C12OC3(c4ccccc4)OC1C1C4OC4(CO)C(O)C4(O)C(=O)C(C)=CC4C1(O3)C(C)C2OC(=O)c1ccccc1", "note": "(centres undefined)", "values": [{"measurement": "T/C", "setting": "endpoint: median survival time, dose: 0.1 mg/kg/injection, schedule: Q01DX009 (ip), vehicle: saline, higher = longer survival", "result": "100 % of control"}, {"measurement": "T/C", "setting": "endpoint: median survival time, dose: 0.2 mg/kg/injection, schedule: Q01DX009 (ip), vehicle: saline, higher = longer survival", "result": "100 % of control"}, {"measurement": "T/C", "setting": "endpoint: median survival time, dose: 0.4 mg/kg/injection, schedule: Q01DX009 (ip), vehicle: saline, higher = longer survival", "result": "100 % of control"}, {"measurement": "T/C", "setting": "endpoint: median survival time, dose: 0.8 mg/kg/injection, schedule: Q01DX009 (ip), vehicle: saline, higher = longer survival", "result": "94 % of control"}]}, {"smiles": "CN(C)N=Nc1n[nH]nc1C(N)=O", "values": [{"measurement": "T/C", "setting": "endpoint: median tumor weight (est.), dose: 134.5 mg/kg/injection, schedule: Q01DX009 (ip), vehicle: saline, higher = larger tumour", "result": "102 % of control"}, {"measurement": "T/C", "setting": "endpoint: median tumor weight (est.), dose: 269.0 mg/kg/injection, schedule: Q01DX009 (ip), vehicle: saline, higher = larger tumour", "result": "81 % of control"}, {"measurement": "T/C", "setting": "endpoint: median tumor weight (est.), dose: 538.0 mg/kg/injection, schedule: Q01DX009 (ip), vehicle: saline, higher = larger tumour", "result": "79 % of control"}]}, {"smiles": "CN(/N=N/N(C)c1ccccc1)c1ccccc1", "values": [{"measurement": "T/C", "setting": "endpoint: mean tumor weight, dose: 15.6 mg/kg/injection, schedule: Q01DX011 (ip), vehicle: carboxymethylcellulose (CMC), higher = larger tumour", "result": "77 % of control"}, {"measurement": "T/C", "setting": "endpoint: mean tumor weight, dose: 31.3 mg/kg/injection, schedule: Q01DX011 (ip), vehicle: carboxymethylcellulose (CMC), higher = larger tumour", "result": "66 % of control"}, {"measurement": "T/C", "setting": "endpoint: mean tumor weight, dose: 62.5 mg/kg/injection, schedule: Q01DX011 (ip), vehicle: carboxymethylcellulose (CMC), higher = larger tumour", "result": "52 % of control"}, {"measurement": "T/C", "setting": "endpoint: mean tumor weight, dose: 125.0 mg/kg/injection, schedule: Q01DX011 (ip), vehicle: carboxymethylcellulose (CMC), higher = larger tumour", "result": "48 % of control"}]}, {"smiles": "Cc1c(C)c2c(c(C)c1O)CCC(C)(CCCC(C)CCCC(C)CCCC(C)C)O2", "note": "(centres undefined)", "values": [{"measurement": "T/C", "setting": "endpoint: median survival time, dose: 12.5 mg/kg/injection, schedule: Q02DX009 (ip), vehicle: olive oil, sesame oil, peanut oil, higher = longer survival", "result": "116 % of control"}, {"measurement": "T/C", "setting": "endpoint: median survival time, dose: 25.0 mg/kg/injection, schedule: Q02DX009 (ip), vehicle: olive oil, sesame oil, peanut oil, higher = longer survival", "result": "100 % of control"}, {"measurement": "T/C", "setting": "endpoint: median survival time, dose: 50.0 mg/kg/injection, schedule: Q02DX009 (ip), vehicle: olive oil, sesame oil, peanut oil, higher = longer survival", "result": "108 % of control"}, {"measurement": "T/C", "setting": "endpoint: median survival time, dose: 100.0 mg/kg/injection, schedule: Q02DX009 (ip), vehicle: olive oil, sesame oil, peanut oil, higher = longer survival", "result": "104 % of control"}, {"measurement": "T/C", "setting": "endpoint: median survival time, dose: 200.0 mg/kg/injection, schedule: Q02DX009 (ip), vehicle: olive oil, sesame oil, peanut oil, higher = longer survival", "result": "122 % of control"}, {"measurement": "T/C", "setting": "endpoint: median survival time, dose: 400.0 mg/kg/injection, schedule: Q02DX009 (ip), vehicle: olive oil, sesame oil, peanut oil, higher = longer survival", "result": "118 % of control"}]}, {"smiles": "ClCC[N+]12CC[N+](CCCl)(CC1)C2", "values": [{"measurement": "T/C", "setting": "endpoint: median survival time, dose: 25.0 mg/kg/injection, schedule: Q01DX009 (ip), vehicle: saline, higher = longer survival", "result": "105 % of control"}, {"measurement": "T/C", "setting": "endpoint: median survival time, dose: 50.0 mg/kg/injection, schedule: Q01DX009 (ip), vehicle: saline, higher = longer survival", "result": "106 % of control"}]}]}
